According to patent publication US12186401B2, “Amide-based proteolysis modulators of B-rapidly accelerated fibrosarcoma (BRAF) and associated uses” (Ontario Institute for Cancer Research (OICR), priority 2019, dated 2025):

Assays:
B-Raf (V600E) (h) = B-Raf (V600E) (h) (Homo sapiens, UniProt P15056, V600E); experiment: Kinase inhibition assay B-Raf (V600E) (h), radiometric 33P-ATP filter assay; format: biochemical; conditions: read-out: IC50(nM) BRAF^V600E
Method: (§1) b-Raf (V599E) (h) was incubated with 25 mM Tris/HCl pH 7.5, 0.2 mM EGTA, 10 mM DTT, 0.01% Triton X-100, 0.5 mM, sodium orthovandate, 0.5 mM […], 1% glycerol, 34 nM unactive MEK1, 69 nM unactive MAPK2, 0.5 mg/mL myelin basic protein, and 10 mM Magnesium acetate and […] (specific activity and concentration as required). The reaction was initiated by the addition of the Mg/ATP mix. After incubation for 40 minutes at room temperature, the reaction was stopped by the addition of phosphoric acid to a concentration of 0.5%. 10 μL of the reaction was then spotted onto a P30 filtermat and washed four times for 4 minutes in 0.425% phosphoric acid and once in methanol prior to drying and scintillation counting. Similar protocols were used for other kinase assays employing the kinase of interest to generate the data in Table 1.

ARAF = molecular target: T1, ARAF (Homo sapiens, UniProt P10398); experiment: Kinase inhibition assay ARAF (similar protocol); format: biochemical
T1 sequence (P10398 1-606): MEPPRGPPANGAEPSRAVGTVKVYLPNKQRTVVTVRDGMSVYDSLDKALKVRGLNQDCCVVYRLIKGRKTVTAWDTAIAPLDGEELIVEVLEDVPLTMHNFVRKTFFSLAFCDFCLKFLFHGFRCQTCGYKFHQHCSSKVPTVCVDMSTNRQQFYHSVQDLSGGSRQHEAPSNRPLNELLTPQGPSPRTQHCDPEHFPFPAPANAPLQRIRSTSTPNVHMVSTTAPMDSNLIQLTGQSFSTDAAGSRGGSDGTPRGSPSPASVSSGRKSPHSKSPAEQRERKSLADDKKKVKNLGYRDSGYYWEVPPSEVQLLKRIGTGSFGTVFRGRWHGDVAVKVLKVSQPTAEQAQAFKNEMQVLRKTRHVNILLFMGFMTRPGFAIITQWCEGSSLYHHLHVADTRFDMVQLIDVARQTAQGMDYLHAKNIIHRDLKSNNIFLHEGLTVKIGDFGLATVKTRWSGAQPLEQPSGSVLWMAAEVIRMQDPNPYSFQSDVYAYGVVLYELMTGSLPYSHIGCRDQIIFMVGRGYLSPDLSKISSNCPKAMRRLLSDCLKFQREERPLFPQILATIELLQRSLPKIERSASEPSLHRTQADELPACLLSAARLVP
Method: as §1

CRAF = CRAF (Homo sapiens, UniProt P04049); experiment: Kinase inhibition assay CRAF (similar protocol); format: biochemical
CRAF, sequence (P04049 whole entry): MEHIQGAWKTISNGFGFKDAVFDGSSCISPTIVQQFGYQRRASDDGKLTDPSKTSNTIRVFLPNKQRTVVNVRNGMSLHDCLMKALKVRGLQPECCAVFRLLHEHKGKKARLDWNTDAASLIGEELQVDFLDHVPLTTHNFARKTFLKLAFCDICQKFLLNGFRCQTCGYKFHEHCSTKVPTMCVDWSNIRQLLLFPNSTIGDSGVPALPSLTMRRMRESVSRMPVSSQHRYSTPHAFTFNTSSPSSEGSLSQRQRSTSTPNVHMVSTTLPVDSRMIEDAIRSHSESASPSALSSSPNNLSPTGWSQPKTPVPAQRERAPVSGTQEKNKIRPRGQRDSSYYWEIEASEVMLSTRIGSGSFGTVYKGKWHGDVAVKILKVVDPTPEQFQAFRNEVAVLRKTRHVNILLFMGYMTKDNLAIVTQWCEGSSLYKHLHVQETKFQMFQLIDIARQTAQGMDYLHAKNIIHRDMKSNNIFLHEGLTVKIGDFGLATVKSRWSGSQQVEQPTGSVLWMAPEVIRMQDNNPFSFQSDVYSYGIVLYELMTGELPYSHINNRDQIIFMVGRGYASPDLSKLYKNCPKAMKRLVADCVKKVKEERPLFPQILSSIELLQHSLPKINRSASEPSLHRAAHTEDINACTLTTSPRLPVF
Method: as §1

BRAF^V600E = molecular target: T2, BRAF^V600E (Homo sapiens, UniProt P15056, V600E); experiment: Cellular degradation assay, Western blot of BRAF^V600E; format: cell-based; conditions: for degradation of BRAF^V600E by immunoblot (FIGS. 4 and 5): A375 human melanoma cells, 24 hrs; for DCmax(%) BRAF^V600E / DC50: Table 1, cells treated 24 hours, Western blot; for DC50: read-out: DC50(nM) BRAF^V600E
T2 construct: A375 or SK-Mel-28 cells were obtained from ATCC; host or cells: A375 or SK-Mel-28
T2 sequence (P15056 whole entry V600E): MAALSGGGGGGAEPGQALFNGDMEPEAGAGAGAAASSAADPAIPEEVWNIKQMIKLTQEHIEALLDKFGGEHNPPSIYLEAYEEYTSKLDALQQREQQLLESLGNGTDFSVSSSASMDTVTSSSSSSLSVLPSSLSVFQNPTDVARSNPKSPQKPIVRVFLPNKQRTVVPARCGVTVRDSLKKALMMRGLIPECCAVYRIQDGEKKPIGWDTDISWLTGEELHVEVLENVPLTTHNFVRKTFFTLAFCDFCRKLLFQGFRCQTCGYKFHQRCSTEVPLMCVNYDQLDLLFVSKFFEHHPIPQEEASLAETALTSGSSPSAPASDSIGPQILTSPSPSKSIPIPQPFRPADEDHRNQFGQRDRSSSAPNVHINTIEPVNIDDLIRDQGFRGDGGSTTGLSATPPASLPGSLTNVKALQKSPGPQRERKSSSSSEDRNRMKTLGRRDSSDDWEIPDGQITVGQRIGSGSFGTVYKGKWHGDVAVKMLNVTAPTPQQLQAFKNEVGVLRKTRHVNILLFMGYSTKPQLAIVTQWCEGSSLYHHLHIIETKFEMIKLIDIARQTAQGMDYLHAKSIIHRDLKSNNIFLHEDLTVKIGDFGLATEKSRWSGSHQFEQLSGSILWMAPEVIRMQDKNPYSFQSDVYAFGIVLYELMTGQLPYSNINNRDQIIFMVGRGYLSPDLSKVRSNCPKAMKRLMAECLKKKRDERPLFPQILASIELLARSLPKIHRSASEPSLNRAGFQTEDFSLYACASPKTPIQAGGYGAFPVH
Method: Cell culture and compound treatment: A375 or SK-Mel-28 cells were obtained from ATCC and cultured in Dulbecco's Modified Eagle Media (DMEM) supplemented with 10% FBS, penicillin and streptomycin, at 37° C., 5% CO2. Cells grown in 6-well plates were treated for 24 hours with test compounds (solubilized in DMSO) or 0.1% DMSO vehicle control. Cells were harvested by first washing with 1× phosphate-buffered saline (PBS), then scrapping into 1 ml of PBS supplemented with 1 mM phenylmethylsulfonylflouride (PMSF). Cell pellets were obtained after a centrifugation at 300-350×g for 2 min, and immediately snap frozen in liquid nitrogen.
Cell lysis and Western blot analysis: Cell pellets were thawed and lysed by pipetting in lysis buffer (50 mM HEPES (pH 7.4), 150 mM NaCl, 5 mM EDTA, 0.5% NP-40, 5 mM NaF, 10% glycerol), with Roche protease inhibitor cocktail (5056489001) and phosphatase inhibitor cocktail PhosStop (4906845001) added fresh before use. The whole cell lysate was clarified by centrifugation at 15,000-20,000×g for 20 min and supernatant was collected. Total protein concentration in the clarified lysate was determination by Bradford assay (Bio-Rad), and 30-50 ug of protein was separated through SDS-PAGE, transferred onto nitrocellulose membrane and subject to standard immunoblotting protocol. Band intensities were quantified by Bio-Rad Image Lab software. Antibodies to B-Raf (sc-5284), A-Raf (sc-166771), phosphor MEK1/2, pS218/222 (sc-7995), phosphor ERK1/2 (sc-7383) were purchased from Santa Cruz; C-Raf (9422), MEK1/2 (9122), ERK1/2 (9102) from Cell Signaling; p27 (610242) from BD Biosciences. Antibody to the loading control α-tubulin was obtained from Sigma-Aldrich (6199).

B-Raf (V600E) (h), sequence (P15056 whole entry V600E): as above

Compound | IC50 (B-Raf (V600E) (h)) | IC50 (ARAF) | IC50 (CRAF) | degradation of BRAF^V600E by immunoblot (FIGS. 4 and 5) (BRAF^V600E) | DCmax(%) BRAF^V600E (BRAF^V600E) | DC50 (BRAF^V600E) | degradation of BRAF^V600E by immunoblot (FIG. 3A) (BRAF^V600E; dabrafenib 20 nM, PROTAC inhibitors 50 nM)
CCCS(=O)(=O)Nc1ccc(F)c(-n2cc(-c3cncnc3)c3nc(N(C)C4CCN(CC)CC4)ccc32)c1F [Entry 15, N-[3-[5-[(1-ethylpiperidin-4-yl)-methylamino]-3-pyrimidin-5-ylpyrrolo[3,2-b]pyridine-1-yl]-2,4-difluorophenyl]propane-1-sulfonamide, reference compound] | 31 nM | 323 nM | 64 nM | – | 0% | – | –
CCCS(=O)(=O)Nc1ccc(F)c(-n2cc(-c3cncnc3)c3nc(N(C)C4CCN(C(=O)CCC(=O)NCCCOCCOCCOCCCNc5cccc6c5C(=O)N(C5CCC(=O)NC5=O)C6=O)CC4)ccc32)c1F (centres unmarked) [Entry 21, 4-(4-((1-(2,6-Difluoro-3-(propylsulfonamido)phenyl)-3-(pyrimidin-5-yl)-1H-pyrrolo[3,2-b]pyridin-5-yl)(methyl)amino)piperidin-1-yl)-N-(3-(2-(2-(3-((2-(2,6-dioxopiperidin-3-yl)-1,3-dioxoisoindolin-4-yl)amino)propoxy)ethoxy)ethoxy)propyl)-4-oxobutanamide] | 82 nM | 3340 nM | 468 nM | Degradation of BRAF^V600E was observed | 29% | 20 nM | –
CC(C)(C)c1nc(-c2cccc(NS(=O)(=O)c3c(F)cccc3F)c2F)c(-c2ccnc(N)n2)s1 [dabrafenib, reference compound] | – | – | – | – | – | – | no degradation

Further lines, results first:

IC50 (B-Raf (V600E) (h)) | IC50 (ARAF) | IC50 (CRAF) | degradation of BRAF^V600E by immunoblot (FIGS. 4 and 5) (BRAF^V600E) | DCmax(%) BRAF^V600E (BRAF^V600E) | DC50 (BRAF^V600E) | degradation of BRAF^V600E by immunoblot (FIG. 3A) (BRAF^V600E; dabrafenib 20 nM, PROTAC inhibitors 50 nM) | Compound
83 nM | 6550 nM | 542 nM | Degradation of BRAF^V600E was observed | 60% | 100 nM | – | CCCS(=O)(=O)Nc1ccc(F)c(-n2cc(-c3cncnc3)c3nc(N(C)C4CCN(C(=O)CCOCCOCCOCCOCCOCCOCCNc5cccc6c5C(=O)N(C5CCC(=O)NC5=O)C6=O)CC4)ccc32)c1F (centres unmarked) [Entry 19, N-(3-(5-((1-(1-((2-(2,6-dioxopiperidin-3-yl)-1,3-dioxoisoindolin-4-yl)amino)-3,6,9,12,15,18-hexaoxaheneicosan-21-oyl)piperidin-4-yl)(methyl)amino)-3-(pyrimidin-5-yl)-1H-pyrrolo[3,2-b]pyridin-1-yl)-2,4-difluorophenyl)propane-1-sulfonamide]
85 nM | 4910 nM | 592 nM | Degradation of BRAF^V600E was observed | 40% | 75 nM | – | CCCS(=O)(=O)Nc1ccc(F)c(-n2cc(-c3cncnc3)c3nc(N(C)C4CCN(C(=O)CCOCCOCCOCCOCCOCCOCCOCCOCCNc5cccc6c5C(=O)N(C5CCC(=O)NC5=O)C6=O)CC4)ccc32)c1F (centres unmarked) [Entry 20, N-(3-(5-((1-(1-((2-(2,6-dioxopiperidin-3-yl)-1,3-dioxoisoindolin-4-yl)amino)-3,6,9,12,15,18,21,24-octaoxaheptacosan-27-oyl)piperidin-4-yl)(methyl)amino)-3-(pyrimidin-5-yl)-1H-pyrrolo[3,2-b]pyridin-1-yl)-2,4-difluorophenyl)propane-1-sulfonamide]
